Data as given in patent publication US9458515B2, “RNA including nucleoside compound, method for regulating amount of protein produced from the RNA, and nucleoside compound” (RIKEN, priority 2010, dated 2016).

Tests used:
[1] = Photoisomerization reaction assessed by time-dependent changes of absorption spectra; format: physicochemical; conditions: 25 μM in methanol, dark place; for photoisomerization from cis form to trans form: visible light of 550 nm; for photoisomerization from trans form to cis form: visible light of 420 nm
Experimental: A stock solution was prepared by dissolving the 8-phenylazoguanosine obtained in (3-1) in methanol so that the 8-phenylazoguanosine presented at a concentration of 25 μM in the stock solution. In a quartz cell measuring 1 cm per side was placed 200 μl out of the stock solution thus prepared. The quartz cell was irradiated with visible light having a wavelength of 420 nm in a dark place, so that photoisomerization of the trans-8-phenylazoguanosine was assessed by measuring time-dependent changes of absorption spectra of the 8-phenylazoguanosine. In this assessment, MAX-301 manufactured by Asahi Spectra Co., Ltd. was used as a light source, and M.C.420/10 nm manufactured by the same manufacturer was used as a filter. As shown in FIG. 4 (in the upper part), along with trans to cis photoisomerization of the trans-8-phenylazoguanosine, a peak of an absorbance at 420 nm decreased, and an absorbance at 500 to 600 nm increased.
Out of the stock solution prepared in (3-2-1), 200 μl of stock solution was isomerized to the cis form as described previously, after which the resulting product was placed in a quartz cell measuring 1 cm per side. The quartz cell was irradiated with visible light having a wavelength of 550 nm in a dark place, so that photoisomerization of cis-8-phenylazoguanosine was assessed by measuring time-dependent changes of absorption spectrum of the 8-phenylazoguanosine. […] As shown in FIG. 4 (in the lower part), along with trans photoisomerization of the cis-8-phenylazoguanosine, a peak of an absorbance at 420 nm increased, and an absorbance at 500 to 600 nm decreased.
A stock solution was prepared by dissolving the trans-8-(p-toluoylazo)guanosine obtained in (4-1) in methanol so that the trans-8-(p-toluoylazo) guanosine presented at a concentration of 25 μM in the stock solution. […] The quartz cell was irradiated with visible light having a wavelength of 420 nm in a dark place, so that photoisomerization of the trans-8-(p-toluoylazo)guanosine was assessed by measuring time-dependent change of absorption spectra of the trans-8-(p-toluoylazo)guanosine. […] As shown in FIG. 6 (in the upper part), along with cis photoisomerization of the trans-8-(p-toluoylazo)guanosine, a peak of an absorbance at 420 nm decreased, and an absorbance at 500 to 600 nm increased.
Out of the stock solution prepared in (4-2-1), 200 μl of stock solution was isomerized to the cis form as described previously, after which the resulting product was placed in a quartz cell measuring 1 cm per side. The quartz cell was irradiated with visible light having a wavelength of 550 nm in a dark place, so that photoisomerization of cis-8-(p-toluoylazo) guanosine was assessed by measuring time-dependent changes of absorption spectrum of the cis-8-(p-toluoylazo)guanosine. […]

[2] = Alternate cis-trans photoisomerization, durability against reversible photoisomerization (absorbance 420 nm); format: physicochemical; conditions: 25 μM in methanol, alternate 420 nm / 550 nm, each 20 seconds, 30 cycles
Experimental: A stock solution was prepared by dissolving the trans-8-phenylazoguanosine obtained in (3-1) in methanol so that the trans-8-phenylazoguanosine presented at a concentration of 25 μM in the stock solution. In a quartz cell measuring 1 cm per side was placed 200 μl out of the stock solution. The quartz cell was alternately irradiated with visible light having wavelength of 420 nm and with visible light having a wavelength of 550 nm, each for 20 seconds, in a dark place. While this process was repeated in 30 cycles, an absorbance (420 nm) was measured. From the result of the measurement, durability of the compound against reversible photoisomerization was assessed. MAX-301 manufactured by Asahi Spectra Co., Ltd. was used as a light source, and M.C.420/10 nm and M.C.550/10 nm manufactured by the same manufacturer were used as filters.

Compound	photoisomerization from cis form to trans form [1]	photoisomerization from trans form to cis form [1]	other results
Cc1ccc(/N=N\c2nc3c(=O)[nH]c(N)nc3n2[C@@H]2O[C@H](CO)[C@H](O)C2O)cc1 (stereo partly drawn)	photoisomerized nearly completely to the trans form	–	–
Cc1ccc(/N=N/c2nc3c(=O)[nH]c(N)nc3n2[C@@H]2O[C@H](CO)[C@H](O)C2O)cc1 (stereo partly drawn)	–	photoisomerized nearly completely to the cis form	–
Nc1nc2c(nc(/N=N\c3ccccc3)n2[C@@H]2O[C@H](CO)[C@H](O)C2O)c(=O)[nH]1 (stereo partly drawn) [cis-8-phenylazoguanosine]	photoisomerized nearly completely to the trans form	–	–
Nc1nc2c(nc(/N=N/c3ccccc3)n2[C@@H]2O[C@H](CO)[C@H](O)C2O)c(=O)[nH]1 (stereo partly drawn) [trans-8-phenylazoguanosine]	–	photoisomerized nearly completely to the cis form	–
trans-8-phenylazoguanosine	–	–	durability against reversible photoisomerization (decomposition, side-reaction) [2]: no decomposition and side-reaction; trans to cis and cis to trans photoisomerizations on alternate irradiation [2]: alternately took place
